This passage reports IC50 results from patent US20260285876A1, “MACROCYCLIC COMPOUNDS AS USP1 INHIBITORS” (GUANGDONG NEWOPP BIOPHARMACEUTICALS CO., LTD., priority 2023, published 2026).

The experiment addresses T1, USP1/UAF1 (Homo sapiens, UniProt O94782).
T1 construct: purchased R&D Systems
The experiment can be described thus: Deubiquitination assay for USP1/UAF1 (ubiquitin-rhodamine 110 substrate). The format is biochemical. The conditions noted are these: 0.5 nM USP1/UAF1, 150 nM ubiquitin-rhodamine, 50% inhibition compared to DMSO control. How it is done:
Deubiquitination assay for USP1/UAF1: compounds described here were tested for their ability to inhibit USP1 deubiquitinase activity in this assay using ubiquitin-rhodamine 110 as the substrate. The assay was conducted in the assay buffer (50 mM Tris-HCl, pH 7.8, 0.5 mM EDTA, 0.1 mg/ml Bovine Serum Albumin, 1 mM DTT, 0.01% Tween-20) in 384 well plates. 0.5 nM USP1/UAF1 (R&D Systems) was incubated with compounds in dose response format for 10 minutes at room temperature. Then the reaction was initiated by addition of 150 nM ubiquitin-rhodamine (R&D Systems). The fluorescence intensity was read after 45 minutes at Ex488/Em535 by CLARIOstar (BMG Labtech). IC50 response curves were plotted.

pIC50: −log10 of the molar value.

T1 sequence (O94782 whole entry): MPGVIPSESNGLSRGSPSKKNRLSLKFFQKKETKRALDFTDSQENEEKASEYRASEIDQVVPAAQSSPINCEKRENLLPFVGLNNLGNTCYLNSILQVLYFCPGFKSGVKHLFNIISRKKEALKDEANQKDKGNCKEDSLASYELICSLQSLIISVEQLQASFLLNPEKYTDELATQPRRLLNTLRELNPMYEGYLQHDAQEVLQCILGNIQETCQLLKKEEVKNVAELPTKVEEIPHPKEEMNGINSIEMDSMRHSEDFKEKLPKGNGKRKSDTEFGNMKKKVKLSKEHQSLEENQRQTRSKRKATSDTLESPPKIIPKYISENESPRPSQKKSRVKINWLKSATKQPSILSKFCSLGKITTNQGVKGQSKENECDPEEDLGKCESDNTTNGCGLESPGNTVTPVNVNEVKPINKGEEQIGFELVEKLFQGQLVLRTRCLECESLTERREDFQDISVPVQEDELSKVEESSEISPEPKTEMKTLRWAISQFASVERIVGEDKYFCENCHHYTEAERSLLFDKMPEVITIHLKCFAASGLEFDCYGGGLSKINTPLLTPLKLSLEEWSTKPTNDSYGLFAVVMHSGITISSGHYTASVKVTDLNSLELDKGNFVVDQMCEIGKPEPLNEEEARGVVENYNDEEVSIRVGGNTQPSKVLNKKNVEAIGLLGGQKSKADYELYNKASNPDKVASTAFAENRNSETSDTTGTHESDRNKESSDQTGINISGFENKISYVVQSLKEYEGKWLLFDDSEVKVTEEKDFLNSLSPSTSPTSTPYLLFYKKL
T1 sequence (Q8TAF3 whole entry partner): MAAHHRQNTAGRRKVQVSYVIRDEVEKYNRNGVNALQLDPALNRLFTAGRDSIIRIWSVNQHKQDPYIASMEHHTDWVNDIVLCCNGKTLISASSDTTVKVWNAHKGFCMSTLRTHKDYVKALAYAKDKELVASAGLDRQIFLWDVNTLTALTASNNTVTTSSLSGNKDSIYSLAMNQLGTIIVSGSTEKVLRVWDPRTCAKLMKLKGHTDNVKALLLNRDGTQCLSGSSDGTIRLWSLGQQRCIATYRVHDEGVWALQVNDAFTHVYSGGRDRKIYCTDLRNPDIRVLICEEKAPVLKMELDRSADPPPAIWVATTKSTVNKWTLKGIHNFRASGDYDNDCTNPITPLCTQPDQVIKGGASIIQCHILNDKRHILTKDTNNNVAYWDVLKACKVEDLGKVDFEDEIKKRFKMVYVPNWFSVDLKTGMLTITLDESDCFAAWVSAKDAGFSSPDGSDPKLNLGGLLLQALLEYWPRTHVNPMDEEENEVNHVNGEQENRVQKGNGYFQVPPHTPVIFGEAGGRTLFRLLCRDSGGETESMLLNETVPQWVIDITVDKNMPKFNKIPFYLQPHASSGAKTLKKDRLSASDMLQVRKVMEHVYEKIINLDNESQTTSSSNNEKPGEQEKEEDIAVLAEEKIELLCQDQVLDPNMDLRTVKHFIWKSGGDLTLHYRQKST

Regarding `CC(C)n1cc(C(F)(F)F)nc1-c1ccc2c(c1)NCCOc1ncnc(C3CC3)c1-c1ncc3ccc(=O)n(c3n1)C2` [Example 24, 1^6-cyclopropyl-4^4-(1-isopropyl-4-(trifluoromethyl)-1H-imidazol-2-yl)-2^7,2^8-dihydro-8-oxa-5-aza-2(2,8)-pyrido[2,3-d]pyrimidina-1(5,4)-pyrimidina-4(1,2)-benzenacyclooctaphan-2^7-one], the pIC50 (in general, −log10 of the IC50, conventionally taken in molar units) was at least 7.00.

The compound `CC(C)n1cc(C(F)(F)F)nc1-c1ccc2c(c1)CCCOc1ncnc(C3CC3)c1-c1ncc3ccc(=O)n(c3n1)C2` [Example 25, 1^6-cyclopropyl-4^4-(1-isopropyl-4-(trifluoromethyl)-1H-imidazol-2-yl)-2^7,2^8-dihydro-8-oxa-2(2,8)-pyrido[2,3-d]pyrimidina-1(5,4)-pyrimidina-4(1,2)-benzenacyclooctaphan-2^7-one] gave a pIC50 of at least 7.00.

`CC(C)n1cc(C(F)(F)F)nc1-c1ccc2c(c1)NCCCOc1cccc(C3CC3)c1-c1ncc3cnn(c3n1)C2` [Example 26, 1^6-cyclopropyl-4^4-(1-isopropyl-4-(trifluoromethyl)-1H-imidazol-2-yl)-2^1H-9-oxa-5-aza-2(6,1)-pyrazolo[3,4-d]pyrimidina-1,4(1,2)-dibenzenacyclononaphane] had a pIC50 of at least 7.00.

`CC(C)n1cc(C(F)(F)F)nc1-c1ccc2c(c1)SCCOc1ncnc(C3CC3)c1-c1ncc3cnn(c3n1)C2` [Example 27, 1^6-cyclopropyl-4^4-(1-isopropyl-4-(trifluoromethyl)-1H-imidazol-2-yl)-2^1H-8-oxa-5-thia-2(6,1)-pyrazolo[3,4-d]pyrimidina-1(5,4)-pyrimidina-4(1,2)-benzenacyclooctaphane] showed a pIC50 of at least 7.00.

With `CC(C)n1cc(C(F)(F)F)nc1-c1ccc2c(c1)COCCOc1ncnc(C3CC3)c1-c1ncc3cnn(c3n1)C2` [Example 28, 1^6cyclopropyl-4^4-(1-isopropyl-4-(trifluoromethyl)-1H-imidazol-2-yl)-2^1H-6,9-dioxa-2(6,1)-pyrazolo[3,4-d]pyrimidina-1(5,4)-pyrimidina-4(1,2)-benzenacyclononaphane], the pIC50 is at least 7.00.

`CC(C)n1cc(C(F)(F)F)nc1-c1ccc2cc1OCCOc1ncnc(C3CC3)c1-c1ncc3cnn(c3n1)C2` [Example 29, 1^6-cyclopropyl-44-(1-isopropyl-4-(trifluoromethyl)-1H-imidazol-2-yl)-2^1H-5,8-dioxa-2(6,1)-pyrazolo[3,4-d]pyrimidina-1(5,4)-pyrimidina-4(1,3)-benzenacyclooctaphane] gave a pIC50 of at least 7.00.

For the compound `CC(C)n1cc(C(F)(F)F)nc1-c1ccc2c(c1)/C=C/COc1ncnc(C3CC3)c1-c1ncc3cnn(c3n1)C2` [Example 30, (E)-1^6-cyclopropyl-4^4-(1-isopropyl-4-(trifluoromethyl)-1H-imidazol-2-yl)-2^1H-8-oxa-2(6,1)-pyrazolo[3,4-d]pyrimidina-1(5,4)-pyrimidina-4(1,2)-benzenacyclooctaphan-5-ene], the pIC50 is at least 7.00.

`CC(C)n1cc(C(F)(F)F)nc1-c1ccc2c(c1)OCCOc1ncnc(C3CC3)c1-c1ncc3ccc(n3n1)C2` [Example 31, (Z)-1^6-cyclopropyl-4^4-(1-isopropyl-4-(trifluoromethyl)-1H-imidazol-2-yl)-5,8-dioxa-2(2,7)-pyrrolo[2,1-f][1,2,4]triazina-1(5,4)-pyrimidina-4(1,2)-benzenacyclooctaphane] gave a pIC50 of at least 7.00.

`FC(F)(F)c1cn(C2CC2)c(-c2ccc3c(c2)CCCOc2ncnc(C4CC4)c2-c2ncc4ccc(n4n2)C3)n1` [Example 32, (Z)-1^6-cyclopropyl-4^4-(1-cyclopropyl-4-(trifluoromethyl)-1H-imidazol-2-yl)-8-oxa-2(2,7)-pyrrolo[2,1-f][1,2,4]triazina-1(5,4)-pyrimidina-4(1,2)-benzenacyclooctaphane] had a negative logarithm of the IC50 (pIC50) of at least 7.00.

On to `CC(C)n1cc(C(F)(F)F)nc1-c1ccc2c(c1)NCCCOc1ncnc(C3CC3)c1-c1ncc3ccc(n3n1)C2` [Example 33, (Z)-1^6-cyclopropyl-4^4-(1-isopropyl-4-(trifluoromethyl)-1H-imidazol-2-yl)-9-oxa-5-aza-2(2,7)-pyrrolo[2,1-f][1,2,4]triazina-1(5,4)-pyrimidina-4(1,2)-benzenacyclononaphane], for which the pIC50 is at least 7.00.

Turning to `Fc1cc2n3nc(ncc13)-c1c(ncnc1C1CC1)OCCOc1cc(-c3nc(C(F)(F)F)cn3C3CC3)ccc1C2` [Example 34, (Z)-1^6-cyclopropyl-4^4-(1-cyclopropyl-4-(trifluoromethyl)-1H-imidazol-2-yl)-2^5-fluoro-5,8-dioxa-2(2,7)-pyrrolo[2,1-f][1,2,4]triazina-1(5,4)-pyrimidina-4(1,2)-benzenacyclooctaphane], the pIC50 is at least 7.00.

`CC(C)n1cc(C(F)(F)F)nc1-c1ccc2c(c1)NCCCOc1ncnc(C3CC3)c1-c1ncc3ccn(c3n1)C2` [Example 35, 1^6-cyclopropyl-4^4-(1-isopropyl-4-(trifluoromethyl)-1H-imidazol-2-yl)-2^7H-9-oxa-5-aza-2(2,7)-pyrrolo[2,3-d]pyrimidina-1(5,4)-pyrimidina-4(1,2)-benzenacyclononaphane] showed a pIC50 of at least 7.00.

Take `FC(F)(F)c1cc(C2CC2)n(-c2ccc3c(c2)NCCCOc2c(ncnc2C2CC2)-c2ncc4cnn(c4n2)C3)n1` [Example 36, 1-cyclopropyl-4-(5-cyclopropyl-3-(trifluoromethyl)-1H-pyrazol-1-yl)-21H-9-oxa-5-aza-2(6,1)-pyrazolo[3,4-d]pyrimidina-1(5,4)-pyrimidina-4(1,2)-benzenacyclononaphane]: the pIC50 is at least 7.00.

With `CC(C)c1cc(C(F)(F)F)nn1-c1ccc2c(c1)NCCCOc1ncnc(C3CC3)c1-c1ncc3cnn(c3n1)C2` [Example 37, 16-cyclopropyl-44-(5-isopropyl-3-(trifluoromethyl)-1H-pyrazol-1-yl)-21H-9-oxa-5-aza-2(6,1)-pyrazolo[3,4-d]pyrimidina-1(5,4)-pyrimidina-4(1,2)-benzenacyclononaphane], the pIC50 is at least 7.00.

The compound `CC(C)n1cc(C(F)(F)F)nc1-c1ccc2cc1OCCCOc1ncnc(C3CC3)c1-c1ncc3cnn(c3n1)C2` [Example 38, 1^6-cyclopropyl-4^4-(1-isopropyl-4-(trifluoromethyl)-1H-imidazol-2-yl)-2^1H-5,9-dioxa-2(6,1)-pyrazolo[3,4-d]pyrimidina-1(5,4)-pyrimidina-4(1,3)-benzenacyclononaphane] had a pIC50 of at least 7.00.

`FC(F)(F)c1cn(C2CC2)c(-c2ccc3c(c2)/C=C/COc2ncnc(C4CC4)c2-c2ncc4ccc(n4n2)C3)n1` [Example 39, (2^1Z,5E)-1^6-cyclopropyl-4^4-(1-cyclopropyl-4-(trifluoromethyl)-1H-imidazol-2-yl)-8-oxa-2(2,7)-pyrrolo[2,1-f][1,2,4]triazina-1(5,4)-pyrimidina-4(1,2)-benzenacyclooctaphan-5-ene]: the pIC50 is 6.00 to 7.00.

`CC(C)n1cc(C(F)(F)F)nc1-c1ccc2cc1NCCOc1ncnc(C3CC3)c1-c1ncc3cnn(c3n1)C2` [Example 40, 1^6-cyclopropyl-4^4-(1-isopropyl-4-(trifluoromethyl)-1H-imidazol-2-yl)-2H-8-oxa-5-aza-2(6,1)-pyrazolo[3,4-d]pyrimidina-1(5,4)-pyrimidina-4(1,3)-benzenacyclooctaphane] had a pIC50 of at least 7.00.
